Experiments:
BACE1 [1] = target: T1, BACE1 (Homo sapiens, UniProt P56817); test: Fluorometric BACE1 inhibition assay; assay type: biochemical; conditions: three independent experiments; log dose inhibition curve; read-out: IC50 (mean ± SD) BACE1
T1 construct: purchased Invitrogen (Pan Vera, Madison, WI, USA)
Protocol: Fluorometric assays with a recombinant human BACE1 or TACE were conducted according to manufacturer instructions. […] The inhibition ratio was obtained using the following equation:Inhibition (%) = [1 − (S − S0)/(C − C0)] × 100 where C was the fluorescence of control (enzyme, assay buffer, and substrate) after 60 min of incubation, C0 was the fluorescence of control at time 0, S was the fluorescence of tested samples (enzyme, sample solution, and substrate) after 60 min of incubation, and S0 was the fluorescence of the tested samples at time 0.

[2] = target: T2, AChE from Electrophorus electricus (electric eel) (Electrophorus electricus, UniProt O42275); test: Colorimetric AChE inhibition assay (DTNB); assay type: biochemical; conditions: three independent experiments; log dose inhibition curve; read-out: IC50 (mean ± SD) AChE
T2 construct: purchased Sigma-Aldrich (St. Louis, MO, USA)
Protocol: The colorimetric assays, including AChE, trypsin, chymotrypsin, and elastase were assayed according to previously described methods [36]. […] All reactions were performed in 96-well plates in triplicate and recorded using a microplate spectrophotometer.

[3] = target: T3, human recombinant TACE (α-secretase) (Homo sapiens, UniProt P78536); test: Fluorometric TACE inhibition assay; assay type: biochemical; conditions: mean ± SD, read-out: Inhibitory activity TACE (α-Secretase); for inhibition at 50 µM: 50 μM compound; for inhibition at 100 µM: 100 μM compound
T3 construct: purchased R&D Systems (Minneapolis, MN, USA)
Protocol: (§1) Fluorometric assays with a recombinant human BACE1 or TACE were conducted according to manufacturer instructions. Briefly, reaction mixtures containing human recombinant BACE1 (1.0 U/mL), the substrate (75 μM in 50 mM ammonium bicarbonate), and phlorotannins dissolved in an assay buffer (50 mM sodium acetate, pH 4.5) were incubated in darkness for 60 min at 25 °C in well plates. The increase in fluorescence intensity produced by substrate hydrolysis was observed on a fluorescence microplate reader with excitation and emission wavelengths of 545 and 590 nm, respectively. The inhibition ratio was obtained using the following equation:Inhibition (%) = [1 − (S − S0)/(C − C0)] × 100 where C was the fluorescence of control (enzyme, assay buffer, and substrate) after 60 min of incubation, C0 was the fluorescence of control at time 0, S was the fluorescence of tested samples (enzyme, sample solution, and substrate) after 60 min of incubation, and S0 was the fluorescence of the tested samples at time 0.
A human recombinant TACE (0.1 ppm in 25 mM Tris buffer), the substrate (APP peptide […] using EDANS/DABCYL), and phlorotannins were dissolved in an assay buffer, which were then combined and incubated for 60 min in the dark at 25 °C. The increase in fluorescence intensity produced by substrate hydrolysis was observed on a fluorescence microplate reader with excitation and emission wavelengths of 320 and 405 nm, respectively.

trypsin = test: Colorimetric trypsin inhibition assay; assay type: biochemical; conditions: mean ± SD
Protocol: (§2) The colorimetric assays, including AChE, trypsin, chymotrypsin, and elastase were assayed according to previously described methods. The hydrolysis of AChE was monitored according to the formation of yellow 5-thio-2-nitrobenzoate anions at 405 nm for 15 min, which were produced by the reaction of DTNB with thiocholine released from ACh. All reactions were performed in 96-well plates in triplicate and recorded using a microplate spectrophotometer.
(§3) N-benzoyl-L-Arg-pNA, N-benzoyl-L-Tyr-pNA, and N-succinyl-Ala-Ala-Ala-pNA were used as substrates to assay the inhibition of trypsin, chymotrypsin, and elastase, respectively. Enzyme, Tris-HCl buffer (0.05 M, in 0.02 M CaCl2, pH 8.2), and phlorotannins were incubated for 10 min at 25 °C; then, substrate was added for 30 min at 37 °C. The absorbance was recorded at 410 nm. The inhibition ratio was obtained using the following equation:Inhibition (%) = {[1 − (A − B)]/control} × 100 where A was the absorbance of the control (enzyme, assay buffer, and substrate) after 60 min of incubation, and B was the absorbance of tested sample (assay buffer and sample solution) after 60 min of incubation.

chymotrypsin = target: T4, chymotrypsin (Bos taurus, UniProt P00766); test: Colorimetric chymotrypsin inhibition assay; assay type: biochemical; conditions: mean ± SD, read-out: Inhibitory activity Chymotrypsin; for inhibition at 50 µM: 50 μM compound; for inhibition at 100 µM: 100 μM compound
T4 construct: purchased Sigma-Aldrich (St. Louis, MO, USA)
Protocol: as §2, §3

elastase = target: T5, elastase (Sus scrofa, UniProt P00772); test: Colorimetric elastase inhibition assay; assay type: biochemical; conditions: mean ± SD, read-out: Inhibitory activity Elastase; for inhibition at 50 µM: 50 μM compound; for inhibition at 100 µM: 100 μM compound
T5 construct: purchased Sigma-Aldrich (St. Louis, MO, USA)
Protocol: as §2, §3

BACE1 [4] = target: T1, BACE1; test: Enzyme kinetic study of BACE1 inhibition (Dixon and Lineweaver–Burk plots); assay type: biochemical; conditions: for Ki: Dixon plot; for Inhibition Mode BACE1: Lineweaver–Burk plot
Protocol: as §1
(§4) To evaluate the kinetic mechanisms of phlorotannins towards BACE1 and AChE, Dixon and Lineweaver–Burk plots were conducted by various concentrations of substrate and inhibitors. Kinetic parameters such as Ki, Vmax, and Km values were calculated by Sigma Plot 12.3 (Systat Software, Inc., San Jose, CA, USA)

AChE = target: T6, AChE (Electrophorus electricus, UniProt O42275); test: Enzyme kinetic study of AChE inhibition (Dixon and Lineweaver–Burk plots); assay type: biochemical, Electrophorus electricus (electric eel); conditions: for Ki: Dixon plot; for Inhibition Mode AChE: Lineweaver–Burk plot
T6 construct: purchased Sigma-Aldrich (St. Louis, MO, USA)
Protocol: as §2, §4

hyaluronidase = conditions: previous study; read-out: IC50 against hyaluronidase; cited from earlier work
[5] = tested on: murine hippocampus neuronal cells; conditions: cited from earlier work
[6] = cited from earlier work
[7] = tested on: HIV-reverse transcriptase; conditions: compared with 8,4′′′-dieckol (diphenyl ether linkage); cited from earlier work
BACE1 [8] = conditions: phlorotannins from Eisenia bicyclis; cited from earlier work
[9] = tested on: ethanol-induced memory impairment mice; conditions: oral administration, 10 mg/kg; cited from earlier work
[10] = cited from earlier work; remark: listed apart in the source

T5 sequence (P00772 27-266): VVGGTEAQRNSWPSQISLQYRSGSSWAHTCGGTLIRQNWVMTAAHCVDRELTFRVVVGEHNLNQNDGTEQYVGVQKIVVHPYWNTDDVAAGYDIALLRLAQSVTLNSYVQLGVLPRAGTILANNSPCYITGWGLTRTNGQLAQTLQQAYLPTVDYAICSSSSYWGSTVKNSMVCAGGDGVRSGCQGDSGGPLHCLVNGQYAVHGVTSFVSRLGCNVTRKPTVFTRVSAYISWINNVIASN
T6 sequence (O42275 24-633): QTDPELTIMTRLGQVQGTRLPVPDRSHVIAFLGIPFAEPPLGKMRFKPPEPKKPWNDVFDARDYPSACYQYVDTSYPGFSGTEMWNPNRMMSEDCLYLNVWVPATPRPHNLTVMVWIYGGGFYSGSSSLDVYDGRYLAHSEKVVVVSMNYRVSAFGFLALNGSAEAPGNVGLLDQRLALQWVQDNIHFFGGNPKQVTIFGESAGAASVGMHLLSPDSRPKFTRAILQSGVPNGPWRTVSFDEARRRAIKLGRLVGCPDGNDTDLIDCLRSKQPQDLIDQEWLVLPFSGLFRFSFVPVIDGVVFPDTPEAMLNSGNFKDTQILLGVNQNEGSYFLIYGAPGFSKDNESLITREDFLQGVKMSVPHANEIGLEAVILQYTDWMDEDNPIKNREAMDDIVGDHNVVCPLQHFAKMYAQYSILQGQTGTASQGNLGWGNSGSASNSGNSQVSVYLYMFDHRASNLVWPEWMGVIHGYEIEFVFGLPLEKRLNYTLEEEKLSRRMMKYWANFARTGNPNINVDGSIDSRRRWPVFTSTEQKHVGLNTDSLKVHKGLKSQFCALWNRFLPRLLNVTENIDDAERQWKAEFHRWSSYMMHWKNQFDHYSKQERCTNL
T2 sequence (O42275 24-633): as above
T1 sequence (P56817 46-501): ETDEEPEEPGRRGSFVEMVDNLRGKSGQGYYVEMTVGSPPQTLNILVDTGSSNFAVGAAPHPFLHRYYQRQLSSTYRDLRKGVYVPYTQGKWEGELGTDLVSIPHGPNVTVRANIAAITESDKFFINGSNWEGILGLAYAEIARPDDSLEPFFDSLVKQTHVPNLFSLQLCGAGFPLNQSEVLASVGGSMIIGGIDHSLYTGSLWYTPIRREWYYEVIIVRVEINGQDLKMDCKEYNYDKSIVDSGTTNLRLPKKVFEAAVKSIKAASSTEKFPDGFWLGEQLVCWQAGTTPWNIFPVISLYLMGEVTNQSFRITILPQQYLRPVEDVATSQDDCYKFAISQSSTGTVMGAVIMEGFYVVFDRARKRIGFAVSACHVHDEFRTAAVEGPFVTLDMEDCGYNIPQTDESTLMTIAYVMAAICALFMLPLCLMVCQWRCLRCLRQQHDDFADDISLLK
T3 sequence (P78536 215-824): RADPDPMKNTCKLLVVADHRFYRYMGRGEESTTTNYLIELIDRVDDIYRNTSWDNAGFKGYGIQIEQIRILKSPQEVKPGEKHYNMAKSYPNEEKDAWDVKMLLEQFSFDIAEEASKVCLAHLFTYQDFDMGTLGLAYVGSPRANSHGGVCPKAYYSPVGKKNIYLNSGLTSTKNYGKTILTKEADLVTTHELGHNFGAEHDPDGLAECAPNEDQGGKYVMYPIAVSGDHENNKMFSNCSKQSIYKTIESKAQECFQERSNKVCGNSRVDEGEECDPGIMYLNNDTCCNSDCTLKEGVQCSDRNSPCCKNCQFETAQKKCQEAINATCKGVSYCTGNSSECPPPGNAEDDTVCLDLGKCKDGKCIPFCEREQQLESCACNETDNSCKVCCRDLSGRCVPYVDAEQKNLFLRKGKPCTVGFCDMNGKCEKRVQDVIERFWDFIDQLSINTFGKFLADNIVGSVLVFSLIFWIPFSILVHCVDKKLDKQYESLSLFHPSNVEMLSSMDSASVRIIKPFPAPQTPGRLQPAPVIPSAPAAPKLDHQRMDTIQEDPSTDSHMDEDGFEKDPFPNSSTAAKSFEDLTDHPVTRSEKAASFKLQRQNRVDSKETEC

Row | Structure (SMILES) | IC50 (BACE1 [1]) [µM] | IC50 [2] [µM] | inhibition at 50 µM [3] [%] | inhibition at 100 µM [3] [%] | Inhibitory activity Trypsin (trypsin; 50 μM compound) [%] | Inhibitory activity Trypsin (trypsin; 100 μM compound) [%] | inhibition at 50 µM (chymotrypsin) [%] | inhibition at 100 µM (chymotrypsin) [%] | inhibition at 50 µM (elastase) [%] | inhibition at 100 µM (elastase) [%] | Ki (BACE1 [4]) [µM] | Inhibition Mode BACE1 (BACE1 [4]) | Ki (AChE) [µM] | Inhibition Mode AChE (AChE) | IC50 (hyaluronidase) [µM] | H2O2-induced oxidative stress [5] | Lipinski's requirements for acceptable oral bioavailability [6] | other results
1 | Oc1cc(O)cc(Oc2c(O)cc(O)c3c2Oc2c(O)cc(O)cc2O3)c1 [Eckol, 4-(3,5-dihydroxyphenoxy)dibenzo-p-dioxin-1,3,6,8-tetrol] | 7.67 ± 0.71 | 10 ± 0.94 | 19.3 ± 1.52 | 10.6 ± 0.53 | 3.59 ± 0.57 | 4.73 ± 0.25 | 1.48 ± 0.19 | 2.65 ± 0.06 | 6.06 ± 0.13 | 4.37 ± 0.27 | 31.2 | Non-competitive | 37.3 | Competitive | > 800 | suppressed H2O2-induced oxidative stress | meets Lipinski′s requirements for acceptable oral bioavailability | 
2 | Oc1cc(O)cc(Oc2c(O)cc(O)c3c2Oc2c(cc(O)c(-c4c(O)cc5c(c4O)Oc4c(Oc6cc(O)cc(O)c6)c(O)cc(O)c4O5)c2O)O3)c1 [8,8′-Bieckol, 9-(3,5-dihydroxyphenoxy)-2-[9-(3,5-dihydroxyphenoxy)-1,3,6,8-tetrahydroxydibenzo-p-dioxin-2-yl]dibenzo-p-dioxin-1,3,6,8-tetrol] | 1.62 ± 0.14 | 4.59 ± 0.32 | 11.1 ± 0.53 | 3.57 ± 0.05 | 2.98 ± 0.26 | −23.05 ± 0.32 | 0.86 ± 0.02 | 0.33 ± 0.01 | 5.26 ± 0.43 | 7.52 ± 0.24 | 13.9 | Non-competitive | 11.4 | Competitive | 40 |  | have limitations on bioavailability | Inhibitory effect on HIV-reverse transcriptase relative to 8,4′′′-dieckol [7]: tenfold higher
3 | Oc1cc(O)cc(Oc2c(O)cc(O)c3c2Oc2c(O)cc(Oc4c(O)cc(Oc5c(O)cc(O)c6c5Oc5c(O)cc(O)cc5O6)cc4O)cc2O3)c1 [Dieckol, 4-[4-[6-(3,5-dihydroxyphenoxy)-4,7,9-trihydroxydibenzo-p-dioxin-2-yl]oxy-3,5-dihydroxyphenoxy]dibenzo-p-dioxin-1,3,6,8-tetrol] | 2.34 ± 0.1 | 5.69 ± 0.42 | 16.9 ± 1.01 | 18.3 ± 0.41 | 6.44 ± 0.76 | −16.64 ± 1.40 | 4.39 ± 0.44 | 1.43 ± 0.02 | 6.7 ± 0.85 | 6.2 ± 0.14 | 20.1 | Non-competitive | 12.3 | Competitive | 120 | suppressed H2O2-induced oxidative stress | have limitations on bioavailability | BACE1 inhibitory effect, relative (BACE1 [8]): stronger than eckol; Cognitive ability [9]: improved cognitive ability; Penetration into the brain across the blood–brain barrier [10]: successfully penetrated into the brain via crossing the blood–brain barrier

— article PMC6410325, “Dual BACE1 and Cholinesterase Inhibitory Effects of Phlorotannins from Ecklonia cava—An In Vitro and in Silico Study” (Marine Drugs, 2019)
